Data reported in patent US20130040914A1, “PRODRUGS OF AN HIV REVERSE TRANSCRIPTASE INHIBITOR” (priority 2010, published 2013).
In brackets after ≈: the same amount, converted by molar mass. One block for each compound: values may come before it.

Tests used:
[1] = Water solubility at room temperature (excess solid stirred in deionized water, HPLC); conditions: thermodynamic from solid; for solubility at 24 h: deionized water
Method: A stir bar was then placed in the tube and the tube placed on a multi-position stirrer plate. […] The solubility of each compound was determined via HPLC, wherein a portion of the supernatant was removed from the tube, diluted with ACN:water (50:50 by volume) as necessary to achieve a suitable concentration for analysis, and then analyzed by HPLC against a standard (=a solution of the K salt of Example 1 in ACN:water 50:50 by volume). One determination was made for each compound.
HPLC: column=Agilent Zorbax Eclipse (4.6×50 mm, 1.8 micron); mobile phase=0.1% H3PO4:ACN; gradient=90% to 10% H3PO4; flow rate=1.5 mL/minute; column temperature=45° C.; injection volume=25 μL; UV sampling with detection wavelength=210 nm; run time=15 minutes.

[2] = target: HIV reverse transcriptase (Human immunodeficiency virus type 1 group M subtype B, UniProt P03366); conditions: qualitative statement in Background; cited from earlier work
[3] = Oral bioavailability in pharmacokinetic studies in animals; format: in vivo; conditions: qualitative
[4] = Aqueous solubility (background statement); format: physicochemical; conditions: qualitative statement in Background

SMILES: N#Cc1cc(Cl)cc(Oc2c(C(F)(F)F)ccn(Cc3nn(COP(=O)([O-])O)c4ncccc34)c2=O)c1.O.[K+] [Example 1, Potassium (3-{[3-(3-chloro-5-cyanophenoxy)-2-oxo-4-(trifluoromethyl)pyridin-1(2H)-yl]methyl}-1H-pyrazolo[3,4-b]pyridin-1-yl)methyl hydrogen phosphate monohydrate]
solubility at 4 h [1]: 12000 µg/mL

solubility at 24 h [1]: 1100 µg/mL
SMILES: CN(CCN)C(=O)n1nc(Cn2ccc(C(F)(F)F)c(Oc3cc(Cl)cc(C#N)c3)c2=O)c2cccnc21.O=S(=O)(O)c1ccccc1 [Example 9, N-(2-Aminoethyl)-3-{[3-(3-chloro-5-cyanophenoxy)-2-oxo-4-(trifluoromethyl)pyridin-1(2H)-yl]methyl}-N-methyl-1H-pyrazolo[3,4-b]pyridine-1-carboxamide benzenesulfonate]

SMILES: N#Cc1cc(Cl)cc(Oc2c(C(F)(F)F)ccn(Cc3n[nH]c4ncccc34)c2=O)c1 [Compound A, 3-chloro-5-{[2-oxo-1-(1H-pyrazolo[3,4-b]pyridin-3-ylmethyl)-4-(trifluoromethyl)-1,2-dihydropyridin-3-yl]oxy}benzonitrile]
non-nucleoside reverse transcriptase inhibition [2]: potent
solubility at 24 h [1]: 0.2 µg/mL (≈ 0.449 µM)
oral bioavailability [3]: relatively low
aqueous solubility [4]: relatively low

SMILES: N#Cc1cc(Cl)cc(Oc2c(Cl)ccn(Cc3n[nH]c4ncccc34)c2=O)c1 [Compound B, 3-chloro-5-{[4-chloro-2-oxo-1-(1H-pyrazolo[3,4-b]pyridin-3-ylmethyl)-1,2-dihydropyridin-3-yl]oxy}benzonitrile]
non-nucleoside reverse transcriptase inhibition [2]: potent
aqueous solubility [4]: relatively low
